Test results published in publication PMC7949139, “The molecular basis of OH-PCB estrogen receptor activation” (The Journal of Biological Chemistry, 2021).
Substitutions are numbered along the chain they refer to. Names and notes keep the numbering of the source. Where two headings read alike, the source gives them in different places. Marks after values point to notes of the source that are not given here.

Key:
[1] = target: T1, SULT1E1 (Homo sapiens, UniProt P49888); assay: Equilibrium binding studies (SULT1E1 intrinsic fluorescence); details: for Kd: pH 7.4, 25 °C, spread = one SD
T1 construct: E. coli codon-optimized SULT1E1 coding region inserted into the PreScission Protease cleavage site; His/GST/MBP triple tag (N, cleaved yes); made in house; host or cells: E. coli BL21(DE3)
T1 sequence (P49888 1-294): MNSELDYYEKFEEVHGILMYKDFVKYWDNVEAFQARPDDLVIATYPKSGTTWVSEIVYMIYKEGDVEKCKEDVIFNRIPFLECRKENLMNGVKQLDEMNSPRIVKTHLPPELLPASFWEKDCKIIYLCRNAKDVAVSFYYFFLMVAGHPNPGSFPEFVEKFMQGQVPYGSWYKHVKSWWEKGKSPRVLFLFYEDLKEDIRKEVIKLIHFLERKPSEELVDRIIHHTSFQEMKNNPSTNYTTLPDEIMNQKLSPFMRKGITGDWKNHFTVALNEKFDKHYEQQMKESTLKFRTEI
Procedure: The binding of inhibitors to WT and mutant SULT1E1 was monitored via ligand-induced changes in the intrinsic fluorescence of the enzyme (λex= 290 nm, λem= 340 nm) ([4]). […] C. Titrations were performed in triplicate and the averaged data were least-squares fit to the following quadratic, single-site binding model: Io − ΔI∙(([L]+Etot + Kd) − [([L]+Etot + Kd)^2 − (4∙[L]∙Etot)]^1/2)/2∙Etot, where Io and ΔI represent fluorescent intensity at zero and infinite [L].

[2] = tested on: estrogen receptor (ER) activation in Ishikawa cells expressing WT SULT1E1; assay: cells; type: cell-based, human; details: for EC50: Homo sapiens, Ishikawa, read-out: Ligand EC50, ER activation
Procedure: (§1) pcDNA 3.1 constructs harboring either the SULT1E1 WT or double mutant (F75A/F80A) coding regions were generated using Gibson Assembly ([74]). The vectors were linearized using BGIII. Ishikawa cells were grown at 37 °C ± 2 deg. C in growth medium (MEM media containing 10% v/v FBS). At confluence, the cells were washed (3×) with PBS media before coating with an Opti-MEM solution containing a linearized construct (50 ng μg^−1) and lipofectamine (2.5 units ml^−1). After 24 h at 37 °C ± 2 deg. C, cells were washed (3×) with PBS before adding growth medium containing neomycin (400 μg ml^−1) to select transfectants. Selective growth medium was replenished every 48 h until single colonies could be isolated (∼3–6 weeks). Single colonies were transferred using trypsin digest (0.05%) to 12-well plates and grown at 37 °C ± 2 deg. C to confluence for further experimentation and storage.
(§2) Transfected Ishikawa cells were grown at 37 °C ± 2 deg. C to 60 to 70% confluency in MEM containing 10% v/v FBS. Cells were then transferred to 96-well tissue culture plates and grown at 37 °C ± 2 deg. C to 80% confluency in MEM containing 10% v/v charcoal filtered FBS. The plate was then washed with PBS and grown at 37 °C ± 2 deg. C for 24 h in MEM without FBS. Estradiol (0–3.0 μM) and OH-PCB (0–1.0 μM) solubilized in neat DMSO were added and cells were incubated at 37 °C ± 2 deg. C for 5 days. The final concentrations of DMSO were ≤0.10%. Cells were then washed twice with PBS before adding pNpp (5.0 mM) in PBS ([75]). Following incubation with pNpp for 3 h at 25 °C ± 2 deg. C, wells were read at 405 nm using a Synergy HT BioTek Plate Reader.

[3] = tested on: estrogen receptor (ER) activation in Ishikawa cells expressing F75A/F80A SULT1E1; assay: cells; type: cell-based, human; details: for EC50: Homo sapiens, Ishikawa, read-out: Ligand EC50, ER activation
Procedure: as §1, §2

[4] = tested on: estrogen receptor (ER) activation in (-) SULT1E1 control Ishikawa cells; assay: Estrogen receptor activation (alkaline phosphatase activity), control strain; type: cell-based; details: Homo sapiens, read-out: Ligand EC50, ER activation
Procedure: as §1, §2

[5] = target: T1, SULT1E1; parameters: method as in PMID 9556564; details: E2 as substrate; cited from earlier work
[6] = target: T1, SULT1E1; parameters: method as in PMID 10803601; details: read-out: Ki (SULT1E1 inhibition); cited from earlier work
[7] = target: T2, WT SULT1E1 (Homo sapiens, UniProt P49888); assay: Initial-rate studies (1-HP sulfonation; OH-PCB inhibition), WT enzyme; type: biochemical; details: compared with ER-activation EC50 values; read-out: Ki values (SULT1E1)
T2 construct: E. coli codon-optimized SULT1E1 coding region inserted into the PreScission Protease cleavage site; His/GST/MBP triple tag (N, cleaved yes); made in house; host or cells: E. coli BL21(DE3)
T2 sequence (P49888 1-294): T1 sequence (P49888 1-294)
Procedure: (§3) C. Reaction progress was monitored via the fluorescence change associated with 1-HP sulfonation (λex = 325 nm, λem = 370 nm ([51], [52])). Initial rates were measured during conversion to product of ≤5% of the concentration-limiting substrate consumed at the reaction endpoint. Velocities were determined in triplicate. Km and kcat were obtained by (1/v^4)-weighted least-squares fitting of the averaged data in double-reciprocal space (i.e., 1/v versus 1/[S]) ([66], [67]).
(§4) Inhibition studies were performed as described above except: 1-HP was fixed (2.0 μM, 100 × Km), OH-PCBs were added (0.20–20 × Ki), and SULT1E1 was 0.20 nM (active sites). Ki was determined by least-squares fitting to a noncompetitive inhibition model ([66], [67]).

[8] = substrate: Oc1ccc2ccc3cccc4ccc1c2c34; assay: as above; type: biochemical, human; details: other: WT, PAPS 0.30 mM, pH 7.5, 25 °C, parentheses = one SD
Procedure: as §3, §4

[9] = substrate: C[C@]12CC[C@@H]3c4ccc(O)cc4CC[C@H]3[C@@H]1CC[C@@H]2O; assay: E2 sulfonation initial-rate assay ([3H]-E2), WT; type: biochemical, human; details: other: WT, [3H]-E2, PAPS 0.30 mM, pH 7.5, 25 °C, parentheses = one SD
Procedure: (§5) SULT1E1-catalyzed conversion of [^3H]-E2 to [^3H]-E2-sulfate was quantitated as previously described ([68]). […] C. […] The reaction mixture was diluted tenfold with an E2 (10 μM), KPO4 (50 mM), pH 7.5 solution, and brought to pH 7.0 with HCl (6.0 N). The reaction was then mixed (1:1 v/v) with neat chloroform and centrifuged (15,000g, 5.0 min). The aqueous layer was removed, chloroform was extracted twice more, and radioactivity in the aqueous layer was then determined by liquid scintillation counting. Reactions were performed in triplicate and Km and kcat were obtained by (1/v^4)-weighted least-squares fitting of the data in double-reciprocal space (i.e., 1/v versus 1/[S]) ([67]).

[10] = substrate: Oc1ccc2ccc3cccc4ccc1c2c34; assay: Initial-rate studies (1-HP sulfonation; OH-PCB1 inhibition), Y239A mutant; type: biochemical, human; details: other: Y239A; parentheses = one SD; pH 7.5; 25.0 °C
Procedure: as §3, §4

[11] = substrate: Oc1ccc2ccc3cccc4ccc1c2c34; assay: Initial-rate studies (1-HP sulfonation; OH-PCB1 inhibition), F80A mutant; type: biochemical, human; details: other: F80A; parentheses = one SD; pH 7.5; 25.0 °C
Procedure: as §3, §4

[12] = substrate: Oc1ccc2ccc3cccc4ccc1c2c34; assay: Initial-rate studies (1-HP sulfonation; OH-PCB1 inhibition), F75A mutant; type: biochemical, human; details: other: F75A; parentheses = one SD; pH 7.5; 25.0 °C
Procedure: as §3, §4

[13] = substrate: Oc1ccc2ccc3cccc4ccc1c2c34; assay: Initial-rate studies (1-HP sulfonation; OH-PCB1 inhibition), double mutant; type: biochemical, human; details: other: F80A/F75A; parentheses = one SD; pH 7.5; 25.0 °C
Procedure: as §3, §4

[14] = substrate: C[C@]12CC[C@@H]3c4ccc(O)cc4CC[C@H]3[C@@H]1CC[C@@H]2O; assay: E2 sulfonation initial-rate assay ([3H]-E2), double mutant; type: biochemical, human; details: other: F80A/F75A; parentheses = one SD; 25.0 °C
Procedure: as §5

C[C@]12CC[C@@H]3c4ccc(O)cc4CC[C@H]3[C@@H]1CC[C@@H]2O [E2, 17-Beta-estradiol]
Kd ([1]; OH-PCB1 10 μM, PAP 300 μM, read-out: Kd, ligand binding to enzyme species E⋅PAP⋅OH-PCB1): 0.98 nM | fold tighter binding in the presence of the partner ligand (OH-PCB1/E2 interaction) ([1]; OH-PCB1: E⋅E2 versus E, E2: E⋅PAP⋅OH-PCB1 versus E⋅PAP): […] | Kd ([1]; OH-PCB2 7.0 μM (higher partner concentration), PAP 0.30 mM, read-out: Kd, ligand binding to enzyme species E⋅PAP⋅OH-PCB2): 1.1 nM | Kd ([1]; PAP 300 μM, read-out: Kd, ligand binding to enzyme species E⋅PAP): […] | EC50 ([2]; WT cell line, E2 titration, parentheses = one SD): […] | ER-activation EC50 of E2, fold higher than in the control strain ([2]; WT strain versus control strain): […] | EC50 ([3]; F75A/F80A cell line, E2 titration, parentheses = one SD): […] | ER-activation EC50 of E2, fold higher than in the control strain ([3]; MT (F75A/F80A) strain versus control strain): […] | EC50 ([4]; Control cell line, E2 titration, parentheses = one SD): […] | Km [5]: […]

Oc1c(Cl)cc(-c2ccc(Cl)c(Cl)c2)cc1Cl [OH-PCB2, 4-OH-3,3',4',5-tetrachlorobiphenol]
Kd ([1]; E2 4.0 μM (higher partner concentration), PAP 300 μM, read-out: Kd, ligand binding to enzyme species E⋅PAP⋅E2): 0.4 nM | Kd ([1]; free enzyme E, read-out: Kd, ligand binding to enzyme species E): 7.2 nM | Ki [6]: ~0.4 nM | EC50 [2]: 0.87 nM | EC50 [3]: > 1000 nM | EC50 [4]: > 1000 nM | Ki [7]: 0.5 nM

B1: WT SULT1E1 (Homo sapiens) (protein)
chain: T1 sequence (P49888 1-294)
notes: E. coli codon-optimized SULT1E1 coding region inserted into the PreScission Protease cleavage site; His/GST/MBP triple tag (N, cleaved yes); made in house; host or cells: E. coli BL21(DE3)
Km [8]: 25 (2.2) ^c nM | kcat [8]: 0.633 s⁻¹ | Km [9]: 3.8 (0.2) ^a nM | kcat [9]: 2.5 s⁻¹

B2: SULT1E1 Y239A (Homo sapiens; Y239A) (protein)
chain: T1 sequence (P49888 1-294) with Y239A
notes: as for B1
Km [10]: 25 (2.3) nM | kcat [10]: 0.633 s⁻¹

B3: SULT1E1 F80A (Homo sapiens; F80A) (protein)
chain: T1 sequence (P49888 1-294) with F80A
notes: as for B1
Km [11]: 23 (1.8) nM | kcat [11]: 0.583 s⁻¹

B4: SULT1E1 F75A (Homo sapiens; F75A) (protein)
chain: T1 sequence (P49888 1-294) with F75A
notes: as for B1
Km [12]: 27 (1.7) nM | kcat [12]: 0.6 s⁻¹

B5: SULT1E1 F80A/F75A (Homo sapiens; F75A/F80A) (protein)
chain: T1 sequence (P49888 1-294) with F75A, F80A
notes: as for B1
Km [13]: 28 (2.2) nM | kcat [13]: 0.583 s⁻¹ | Km [14]: 4.0 (0.2) nM | kcat [14]: 2.5 s⁻¹
